System: SD rats (type 2 diabetes model)
Test: model for rat urine glucose excretion (glucose-oxidase method)
Assay type: in vivo
Conditions: type 2 diabetes model SD rats, 6 mg/kg intragastrically, glucose 2 g/kg at 0.5 h, urine collected 0-12 h
Procedure: The health SD rats are injected intraperitoneally with multiple low doses of streptozotocin for modeling (type 2 diabetes model) after feeding with high-fat and high-sucrose diet, and the content of blood glucose is measured before and after modeling. After the modeling successful, the rats for modeling are randomly divided (8 rats/group) into one blank group (administering the same volume of 0.5% CMC sodium solution) and several groups for compounds to be tested (6 mg/kg) according to the content of 24-hour urine glucose and the body weight. Rats in each group are fasted for 16 hours before experiment. The experimental rats are administered intragastrically with glucose (2 g/kg) at 0.5 h after intragastrical administration with compounds to be tested. The urine is collected at the time-period of 0-12 h after administration, and the urine glucose values are measured at each time-period by glucose-oxidase method.
The inhibiting activity of the cocrystal of I-D1-6 and L-proline on SGLT2 is measured by the model for rat urine glucose excretion.
The health SD rats are injected intraperitoneally with multiple low doses of streptozotocin for modeling (type 2 diabetes model) after feeding with high-fat and high-sucrose diet for one month, and the content of blood glucose is measured before and after modeling. After the modeling successful, the rats for modeling are randomly divided (8 rats/group) into one blank group (administering the same volume of 0.5% CMC sodium solution) and groups of tested compound (6 mg/kg) according to the content of 24-hour urine glucose and the body weight. Rats in each group are fasted for 16 hours before experiment. The experimental rats are administered intragastrically with the glucose (2 g/kg) at 0.5 h after intragastrical administration with the cocrystal of I-D1-6 and L-proline prepared in Example 138. The urine is collected at the time-period of 0-12 h after administration, and the urine glucose values are measured at each time-period by glucose-oxidase method.

SMILES	Urine glucose excretion (mg/200 g body weight of the rat)
COc1ccc(Cc2cc(C)cc(C3OC(C)C(O)C(O)C3O)c2)cc1F (stereo not shown)	539 mg/200 g body weight of the rat
CCOc1ccc(Cc2cc(C3SC(CO)C(O)C(O)C3O)c(OC)cc2C)cc1 (stereo not shown) [drawing 211]	625 mg/200 g body weight of the rat
CCOc1ccc(Cc2cc(C3OC(CO)C(O)C(O)C3O)ccc2Cl)cc1 (stereo not shown) [drawing 194]	743 mg/200 g body weight of the rat
CCOc1ccc(Cc2cc([C@]34OC[C@](CO)(O3)[C@@H](O)[C@H](O)[C@H]4O)ccc2Cl)cc1 [drawing 199]	455 mg/200 g body weight of the rat
CCc1ccc(Cc2cc(C3OC(CO)C(O)CC3O)ccc2C)cc1 (stereo not shown)	230 mg/200 g body weight of the rat
CCOc1ccc(Cc2cc(C3SC(C)C(O)C(O)C3O)c(OC)cc2C)cc1 (stereo not shown) [drawing 258]	698 mg/200 g body weight of the rat
CCc1ccc(Cc2cc(C3OC(C)C(O)C(O)C3O)ccc2C)cc1 (stereo not shown)	613 mg/200 g body weight of the rat
CC1OC(c2ccc(F)c(Cc3cc4ccccc4s3)c2)CC(O)C1O (stereo not shown) [drawing 253]	656 mg/200 g body weight of the rat
CCOc1ccc(Cc2cc(C3CC(O)C(O)C(CO)O3)ccc2Cl)cc1 (stereo not shown) [drawing 227]	811 mg/200 g body weight of the rat
CCOc1ccc(Cc2cc(C3CCC(O)C(CO)S3)c(OC)cc2C)cc1 (stereo not shown) [drawing 263]	730 mg/200 g body weight of the rat
COc1ccc(Cc2cc(C3OC(CO)C(O)CC3O)ccc2Cl)cc1 (stereo not shown)	235 mg/200 g body weight of the rat
CCc1ccc(Cc2c(Cl)ccc3c2COC32OC(CO)C(O)C(O)C2O)cc1 (stereo not shown) [drawing 198]	587 mg/200 g body weight of the rat
OCC1CC(O)C(O)C(c2ccc(Cl)c(Cc3ccc(O[C@H]4CCOC4)cc3)c2)O1 (stereo partly shown) [drawing 244]	723 mg/200 g body weight of the rat
OCC1CCC(O)C(c2ccc(Cl)c(Cc3ccc(O[C@H]4CCOC4)cc3)c2)O1 (stereo partly shown) [drawing 262]	721 mg/200 g body weight of the rat
OCC1OC(c2ccc(Cl)c(Cc3ccc(O[C@H]4CCOC4)cc3)c2)C(O)CC1O (stereo partly shown) [drawing 231]	721 mg/200 g body weight of the rat
CCc1ccc(Cc2cc(C3CC(O)C(O)C(CO)O3)ccc2C)cc1 (stereo not shown)	378 mg/200 g body weight of the rat
CC1OC(c2ccc(Cl)c(Cc3ccc(O[C@H]4CCOC4)cc3)c2)C(O)C(O)C1O (stereo partly shown) [drawing 233]	748 mg/200 g body weight of the rat
OCC1CC(O)C(O)C(c2ccc(F)c(Cc3cc4ccccc4s3)c2)O1 (stereo not shown) [drawing 241]	689 mg/200 g body weight of the rat
CCOc1ccc(Cc2cc([C@]34C[C@@H](O)[C@H](O)[C@](CO)(CO3)O4)ccc2Cl)cc1 [drawing 259]	565 mg/200 g body weight of the rat
CCOc1ccc(Cc2cc(C3OC(C)(C)C(O)C(O)C3O)ccc2Cl)cc1 (stereo not shown)	470 mg/200 g body weight of the rat
C#Cc1ccc(Cc2cc(C3OC(CO)CC(O)C3O)ccc2Cl)cc1 (stereo not shown)	213 mg/200 g body weight of the rat
CCc1ccc(Cc2c(Cl)ccc3c2COC32CC(O)CC(CO)O2)cc1 (stereo not shown) [drawing 254]	677 mg/200 g body weight of the rat
CCOc1ccc(Cc2cc(C3OC(CO)CC(O)C3O)ccc2Cl)cc1 (stereo not shown) [drawing 226]	880 mg/200 g body weight of the rat
CCCCOc1ccc(Cc2cc(C3OC(C)C(O)C(O)C3O)ccc2Cl)cc1 (stereo not shown)	721 mg/200 g body weight of the rat
COc1ccc(Cc2cc(C(C)C)cc(C3OC(C)C(O)C(O)C3O)c2)c(F)c1 (stereo not shown)	523 mg/200 g body weight of the rat

From patent US9505734B2, “Phenyl C-glucoside derivative containing deoxyglucose structure, preparation method and use thereof” (Tianjin Institute of Pharmaceutical Research, priority 2012, dated 2016)
